Legend:
Format in all cases: in vivo
kochia (Kochia scoparia) = assay: Test C greenhouse herbicide test, postemergence
Outline: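 Postemergence foliar treatment, 1- to 4-leaf stage (2–18 cm), peat/vermiculite medium; greenhouse 13–15 d; visual rating vs controls, 0 = no effect, 100 = complete control; dash = no result.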

[1] = test system: crabgrass, large (large crabgrass, Digitaria sanguinalis); assay: Test C greenhouse herbicide test, pre- and postemergence
Outline: (§1)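 Each species was treated both before emergence, in a loam–sand soil mix, and after emergence, as 1- to 4-leaf seedlings in peat-based potting medium. Plants stayed in the greenhouse 13 to 15 d, then were scored from 0 (no effect) to 100 (complete control) relative to controls.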

[2] = test system: johnsongrass (Sorghum halepense); assay: as above
Outline: as §1

[3] = test system: ragweed (common ragweed, Ambrosia elatior); assay: as above
Outline: as §1

[4] = test system: pigweed (Amaranthus retroflexus); assay: as above
Outline: as §1

[5] = test system: waterhemp (common waterhemp, Amaranthus rudis); assay: as above
Outline: as §1

[6] = test system: oilseed rape (Brassica napus); assay: as above
Outline: as §1

corn (Zea mays) = assay: as above
Outline: as §1

soybean (Glycine max) = assay: as above
Outline: as §1

[7] = test system: blackgrass (Alopecurus myosuroides); assay: as above
Outline: as §1

[8] = test system: ryegrass, Italian (Italian ryegrass, Lolium multiflorum); assay: as above
Outline: as §1

[9] = test system: lambsquarters (Chenopodium album); assay: as above
Outline: as §1

[10] = test system: foxtail, giant (giant foxtail, Setaria faberii); assay: as above
Outline: as §1

[11] = test system: morningglory (Ipomoea coccinea); assay: as above
Outline: as §1

[12] = test system: wheat (winter wheat, Triticum aestivum); assay: as above
Outline: as §1

[13] = test system: nutsedge, yellow (yellow nutsedge, Cyperus esculentus); assay: as above
Outline: as §1

[14] = Postemergence, 31 g ai/ha, 0 to 100 scale (0 no effect, 100 complete control)
[15] = Postemergence, 125 g ai/ha, scale 0 to 100, 0 is no effect, 100 is complete control
[16] = Postemergence, 250 g ai/ha, scale 0 to 100, 0 no effect, 100 complete control, 13 to 15 d
[17] = postemergence, 62 g ai/ha, scale 0 to 100, 0 no effect, 100 complete control
[18] = Preemergence, 31 g ai/ha, scale 0 to 100, 0 is no effect, 100 is complete control
[19] = Preemergence, 62 g ai/ha, scale 0 to 100, 0 is no effect, 100 is complete control
[20] = Preemergence, 125 g ai/ha, scale 0 to 100, 0 is no effect, 100 is complete control
[21] = Preemergence, 250 g ai/ha, scale 0 to 100 (0 no effect, 100 complete control)

## Cc1ccc2ccccc2c1-c1c(O)c(C)nn(C)c1=O [Compound 59]
Kochia (Kochia scoparia); [14]
  Kochia plant response rating: 95
Kochia (Kochia scoparia); [15]
  Plant response rating, Kochia: 85
Kochia (Kochia scoparia); [16]
  Plant response rating, Kochia: 90
Kochia (Kochia scoparia); [17]
  Kochia plant response rating: 85
[1]; [14]
  Crabgrass, Large plant response rating: 15
[1]; [15]
  Plant response rating, Crabgrass, Large: 25
[1]; [16]
  Plant response rating, Crabgrass, Large: 60
[1]; [18]
  Plant response rating, Crabgrass, Large: 25
[1]; [19]
  Plant response rating, Crabgrass, Large: 70
[1]; [20]
  Plant response rating, Crabgrass, Large: 85
[1]; [21]
  Crabgrass, Large plant response rating: 100
[1]; [17]
  Crabgrass, Large plant response rating: 20
[2]; [14]
  Johnsongrass plant response rating: 5
[2]; [15]
  Plant response rating, Johnsongrass: 25
[2]; [16]
  Plant response rating, Johnsongrass: 35
[2]; [18]
  Plant response rating, Johnsongrass: 5
[2]; [19]
  Plant response rating, Johnsongrass: 25
[2]; [20]
  Plant response rating, Johnsongrass: 45
[2]; [21]
  Johnsongrass plant response rating: 65
[2]; [17]
  Johnsongrass plant response rating: 5
[3]; [14]
  Ragweed plant response rating: 90
[3]; [15]
  Plant response rating, Ragweed: 95
[3]; [16]
  Plant response rating, Ragweed: 98
[3]; [18]
  Plant response rating, Ragweed: 90
[3]; [19]
  Plant response rating, Ragweed: 95
[3]; [20]
  Plant response rating, Ragweed: 100
[3]; [21]
  Ragweed plant response rating: 100
[3]; [17]
  Ragweed plant response rating: 95
[4]; [14]
  Pigweed plant response rating: 90
[4]; [15]
  Plant response rating, Pigweed: 95
[4]; [16]
  Plant response rating, Pigweed: 98
[4]; [18]
  Plant response rating, Pigweed: 100
[4]; [19]
  Plant response rating, Pigweed: 100
[4]; [20]
  Plant response rating, Pigweed: 100
[4]; [21]
  Pigweed plant response rating: 100
[4]; [17]
  Pigweed plant response rating: 95
[5]; [14]
  Waterhemp plant response rating: 85
[5]; [15]
  Plant response rating, Waterhemp: 98
[5]; [16]
  Plant response rating, Waterhemp: 100
[5]; [18]
  Plant response rating, Waterhemp: 95
[5]; [19]
  Plant response rating, Waterhemp: 100
[5]; [20]
  Plant response rating, Waterhemp: 100
[5]; [21]
  Waterhemp plant response rating: 100
[5]; [17]
  Waterhemp plant response rating: 90
[6]; [14]
  Oilseed Rape plant response rating: 5
[6]; [15]
  Plant response rating, Oilseed Rape: 40
[6]; [16]
  Plant response rating, Oilseed Rape: 55
[6]; [18]
  Plant response rating, Oilseed Rape: 65
[6]; [19]
  Plant response rating, Oilseed Rape: 80
[6]; [20]
  Plant response rating, Oilseed Rape: 95
[6]; [21]
  Oilseed Rape plant response rating: 95
[6]; [17]
  Oilseed Rape plant response rating: 50
Corn (Zea mays); [14]
  Corn plant response rating: 5
Corn (Zea mays); [15]
  Plant response rating, Corn: 65
Corn (Zea mays); [16]
  Plant response rating, Corn: 50
Corn (Zea mays); [18]
  Plant response rating, Corn: 0
Corn (Zea mays); [19]
  Plant response rating, Corn: 20
Corn (Zea mays); [20]
  Plant response rating, Corn: 50
Corn (Zea mays); [21]
  Corn plant response rating: 65
Corn (Zea mays); [17]
  Corn plant response rating: 45
Soybean (Glycine max); [14]
  Soybean plant response rating: 0
Soybean (Glycine max); [15]
  Plant response rating, Soybean: 10
Soybean (Glycine max); [16]
  Plant response rating, Soybean: 25
Soybean (Glycine max); [18]
  Plant response rating, Soybean: 0
Soybean (Glycine max); [19]
  Plant response rating, Soybean: 0
Soybean (Glycine max); [20]
  Plant response rating, Soybean: 15
Soybean (Glycine max); [21]
  Soybean plant response rating: 25
Soybean (Glycine max); [17]
  Soybean plant response rating: 15
[7]; [14]
  Blackgrass plant response rating: 65
[7]; [15]
  Plant response rating, Blackgrass: 85
[7]; [16]
  Plant response rating, Blackgrass: 90
[7]; [18]
  Plant response rating, Blackgrass: 85
[7]; [19]
  Plant response rating, Blackgrass: 90
[7]; [20]
  Plant response rating, Blackgrass: 90
[7]; [21]
  Blackgrass plant response rating: 98
[7]; [17]
  Blackgrass plant response rating: 80
[8]; [14]
  Ryegrass, Italian plant response rating: 85
[8]; [15]
  Plant response rating, Ryegrass, Italian: 90
[8]; [16]
  Plant response rating, Ryegrass, Italian: 95
[8]; [18]
  Plant response rating, Ryegrass, Italian: 100
[8]; [19]
  Plant response rating, Ryegrass, Italian: 100
[8]; [20]
  Plant response rating, Ryegrass, Italian: 100
[8]; [21]
  Ryegrass, Italian plant response rating: 100
[8]; [17]
  Ryegrass, Italian plant response rating: 90
[9]; [14]
  Lambsquarters plant response rating: 90
[9]; [15]
  Plant response rating, Lambsquarters: 98
[9]; [16]
  Plant response rating, Lambsquarters: 98
[9]; [18]
  Plant response rating, Lambsquarters: 70
[9]; [19]
  Plant response rating, Lambsquarters: 90
[9]; [20]
  Plant response rating, Lambsquarters: 95
[9]; [21]
  Lambsquarters plant response rating: 95
[9]; [17]
  Lambsquarters plant response rating: 95
[10]; [14]
  Foxtail, Giant plant response rating: 45
[10]; [15]
  Plant response rating, Foxtail, Giant: 85
[10]; [16]
  Plant response rating, Foxtail, Giant: 90
[10]; [18]
  Plant response rating, Foxtail, Giant: 80
[10]; [19]
  Plant response rating, Foxtail, Giant: 95
[10]; [20]
  Plant response rating, Foxtail, Giant: 98
[10]; [21]
  Foxtail, Giant plant response rating: 100
[10]; [17]
  Foxtail, Giant plant response rating: 60
[11]; [14]
  Morningglory plant response rating: 95
[11]; [15]
  Plant response rating, Morningglory: 100
[11]; [16]
  Plant response rating, Morningglory: 100
[11]; [18]
  Plant response rating, Morningglory: 98
[11]; [19]
  Plant response rating, Morningglory: 100
[11]; [20]
  Plant response rating, Morningglory: 100
[11]; [21]
  Morningglory plant response rating: 100
[11]; [17]
  Morningglory plant response rating: 100
[12]; [14]
  Wheat plant response rating: 0
[12]; [15]
  Plant response rating, Wheat: 10
[12]; [16]
  Plant response rating, Wheat: 15
[12]; [18]
  Plant response rating, Wheat: 60
[12]; [19]
  Plant response rating, Wheat: 60
[12]; [20]
  Plant response rating, Wheat: 75
[12]; [21]
  Wheat plant response rating: 85
[12]; [17]
  Wheat plant response rating: 20
[13]; [14]
  Nutsedge, Yellow plant response rating: 65
[13]; [15]
  Plant response rating, Nutsedge, Yellow: 95
[13]; [16]
  Plant response rating, Nutsedge, Yellow: 95
[13]; [18]
  Plant response rating, Nutsedge, Yellow: 80
[13]; [19]
  Plant response rating, Nutsedge, Yellow: 80
[13]; [20]
  Plant response rating, Nutsedge, Yellow: 85
[13]; [21]
  Nutsedge, Yellow plant response rating: 90
[13]; [17]
  Nutsedge, Yellow plant response rating: 85

## Cc1ccc(-c2c(O)c(Br)nn(C)c2=O)c2ccccc12 [Compound 52]
Kochia (Kochia scoparia); [14]
  Kochia plant response rating: 0
Kochia (Kochia scoparia); [15]
  Plant response rating, Kochia: 5
Kochia (Kochia scoparia); [16]
  Plant response rating, Kochia: 70
Kochia (Kochia scoparia); [17]
  Kochia plant response rating: 0
[1]; [14]
  Crabgrass, Large plant response rating: 0
[1]; [15]
  Plant response rating, Crabgrass, Large: 5
[1]; [16]
  Plant response rating, Crabgrass, Large: 10
[1]; [17]
  Crabgrass, Large plant response rating: 0
[2]; [14]
  Johnsongrass plant response rating: 5
[2]; [15]
  Plant response rating, Johnsongrass: 10
[2]; [16]
  Plant response rating, Johnsongrass: 15
[2]; [17]
  Johnsongrass plant response rating: 10
[3]; [14]
  Ragweed plant response rating: 55
[3]; [15]
  Plant response rating, Ragweed: 80
[3]; [16]
  Plant response rating, Ragweed: 98
[3]; [17]
  Ragweed plant response rating: 65
[4]; [14]
  Pigweed plant response rating: 30
[4]; [15]
  Plant response rating, Pigweed: 10
[4]; [16]
  Plant response rating, Pigweed: 55
[4]; [17]
  Pigweed plant response rating: 5
[5]; [14]
  Waterhemp plant response rating: 10
[5]; [15]
  Plant response rating, Waterhemp: 10
[5]; [16]
  Plant response rating, Waterhemp: 55
[5]; [17]
  Waterhemp plant response rating: 10
[6]; [14]
  Oilseed Rape plant response rating: 0
[6]; [15]
  Plant response rating, Oilseed Rape: 0
[6]; [16]
  Plant response rating, Oilseed Rape: 0
[6]; [17]
  Oilseed Rape plant response rating: 0
Corn (Zea mays); [14]
  Corn plant response rating: 0
Corn (Zea mays); [15]
  Plant response rating, Corn: 0
Corn (Zea mays); [16]
  Plant response rating, Corn: 0
Corn (Zea mays); [17]
  Corn plant response rating: 0
Soybean (Glycine max); [14]
  Soybean plant response rating: 0
Soybean (Glycine max); [15]
  Plant response rating, Soybean: 0
Soybean (Glycine max); [16]
  Plant response rating, Soybean: 0
Soybean (Glycine max); [17]
  Soybean plant response rating: 0
[7]; [14]
  Blackgrass plant response rating: 0
[7]; [15]
  Plant response rating, Blackgrass: 30
[7]; [16]
  Plant response rating, Blackgrass: 30
[7]; [17]
  Blackgrass plant response rating: 10
[8]; [14]
  Ryegrass, Italian plant response rating: 10
[8]; [15]
  Plant response rating, Ryegrass, Italian: 45
[8]; [16]
  Plant response rating, Ryegrass, Italian: 60
[8]; [17]
  Ryegrass, Italian plant response rating: 40
[9]; [14]
  Lambsquarters plant response rating: 55
[9]; [15]
  Plant response rating, Lambsquarters: 75
[9]; [16]
  Plant response rating, Lambsquarters: 98
[9]; [17]
  Lambsquarters plant response rating: 60
[10]; [14]
  Foxtail, Giant plant response rating: 0
[10]; [15]
  Plant response rating, Foxtail, Giant: 10
[10]; [16]
  Plant response rating, Foxtail, Giant: 35
[10]; [17]
  Foxtail, Giant plant response rating: 5
[11]; [14]
  Morningglory plant response rating: 98
[11]; [15]
  Plant response rating, Morningglory: 100
[11]; [16]
  Plant response rating, Morningglory: 100
[11]; [17]
  Morningglory plant response rating: 100
[12]; [14]
  Wheat plant response rating: 0
[12]; [15]
  Plant response rating, Wheat: 0
[12]; [16]
  Plant response rating, Wheat: 0
[12]; [17]
  Wheat plant response rating: 0
[13]; [14]
  Nutsedge, Yellow plant response rating: 60
[13]; [15]
  Plant response rating, Nutsedge, Yellow: 90
[13]; [16]
  Plant response rating, Nutsedge, Yellow: 95
[13]; [17]
  Nutsedge, Yellow plant response rating: 80

From patent US10597388B2, “Pyridazinone herbicides” (FMC CORPORATION, priority 2014, dated 2020)
